Experimental data taken from US20190255199A1, “NON-INVASIVE DIAGNOSTIC IMAGING AGENT FOR HEART DISEASE” (Nihon Medi-Physics Co., Ltd., priority 2016, published 2019).

Tests used:
[1] = tested on: heart tissue section of an ischemic heart disease model rat; experiment: In vitro autoradiography using ischemic heart disease model rat (Example 3); format: binding; settings: for accumulation in the presence of an excessive amount of non-labeled compound (binding specificity): 5 μmol/L non-labeled compound (Compound 1 or Compound 2) added, FIG. 4(e)-(h) / FIG. 5(c),(d); for ratio of ischemia reperfusion site signal intensity/non-ischemic site signal intensity: ROI on autoradiograms, n=4, FIG. 7; for accumulation in lesion region on in vitro autoradiogram: sections immersed in labeled compound solution 30 minutes at room temperature, FIG. 4 / FIG. 5
Procedure: (§1) The chest of each Wistar rat (male) was opened under isoflurane anesthesia, and the left coronary artery was ligated for 30 minutes, followed by reperfusion. The chest was closed to prepare an ischemic heart disease model rat. Approximately 1 week after the operation, the rat was sacrificed under anesthesia, and the heart was taken out thereof. Sections of 5 μm in thickness were prepared from the base side of the heart. Immunostaining was carried out using the prepared sections to confirm the expression and distribution of CPY11B2. As an anti-CYP11B2 antibody, one prepared according to the method described in Ogishima T et al., Endocrinology, 1992, vol. 130, pp. 2971-7 was used. As a secondary antibody, HRP Labelled Polymer Anti-Rabbit (manufactured by Dako/Agilent Technologies, Inc.) was used. CYP11B2 expression sites were detected by applying DAB+(3,3′-diaminobenzidine tetrahydrochloride) substrate kit (manufactured by Dako/Agilent Technologies, Inc.) to the HRP bound to the secondary antibody.
Each ischemic heart disease model rat was prepared in the same way as in Example 1. The rat was sacrificed under isoflurane anesthesia between 1 and 3 weeks after the operation. Then, the heart was harvested, and 5 μm sections were prepared and preserved at −80° C. until they were used. The sections were brought back to room temperature from −80° C., dried for 30 minutes or longer, then immersed in phosphate-buffered saline for 30 minutes, and subsequently immersed in phosphate-buffered saline containing 1 w/v % bovine serum albumin for 30 minutes for hydrophilization. Each phosphate-buffered saline containing 1 w/v % bovine serum albumin and further containing Compound [^18F] 1 (radioactivity concentration: approximately 40 kBq/mL) or Compound [^123I] 2 (radioactivity concentration: approximately 10 kBq/mL) was prepared, and the hydrophilized sections were immersed therein at room temperature for 30 minutes. Then, the sections were washed by immersing for 5 minutes each in phosphate-buffered saline containing 1 w/v % bovine serum albumin, phosphate-buffered saline, and phosphate-buffered saline. The sections thus washed were thoroughly dried and then exposed to light for approximately 3 hours as to Compound [^18F] 1 and for approximately 16 hours as to Compound [^123I] 2 on an imaging plate (BAS-SR2040, manufactured by Fujifilm Corp.). Autoradiograms were obtained using a fluoro image analyzer (FLA-7000, manufactured by GE Healthcare Corp.).
Also, autoradiograms were obtained by immersing the sections in a solution containing Compound [^18F] 1 together with 5 μmol/L of Compound 1, or a solution containing Compound [^123I] 2 together with 5 μmol/L of Compound 2 in the same way as above.
The same experiment as above was conducted using the heart harvested from a normal rat.
ROI was established at an ischemia reperfusion site and a non-ischemic site as to the autoradiography of Compound [^18F] 1 and Compound [^123I] 2, and the ratio of signal intensity was compared between these sites. FIG. 7(a) is one example of an autoradiogram of the section immersed in Compound [^18F] 1. FIG. 7(c) is one example of an autoradiogram of the section immersed in Compound [^123I] 2. In both FIGS. 7(a) and 7(c), ROI of the ischemia reperfusion site is surrounded with the solid line, and ROI of the non-ischemic site is surrounded with the broken line. […] 1 in each rat. […] 2 in each rat. […] 1 and Compound [^123I] 2 at the ischemia reperfusion site compared with the non-ischemic site was observed. Higher accumulation of Compound [^123I] 2 than that of Compound [^18F] 1 was also observed.

[2] = tested on: heart tissue section of an ischemic heart disease model rat; experiment: Influence of elapsed time after ischemic heart disease model rat preparation on compound accumulation, in vitro autoradiography (Example 4); format: binding; settings: normal rat and 1 day, 3 days, 1 week after the operation, FIG. 8(a)
Procedure: as §1
(§2) Each ischemic heart disease model rat was prepared in the same way as in Example 1. The rat was sacrificed under isoflurane anesthesia 1 day (3 rats), 3 days (4 rats) or 1 week (4 rats) after the operation. […] 2 (radioactivity concentration: approximately 10 kBq/mL) was prepared, and the hydrophilized sections were immersed therein at room temperature for 30 minutes. […]

[3] = tested on: ischemic heart disease model rat; experiment: SPECT imaging experiment using ischemic heart disease model rat (Example 5); format: in vivo; settings: approximately 100 MBq/rat, one week after operation, static imaging started 150 minutes after administration, FIG. 9(d)-(f)
Procedure: as §1
Each ischemic heart disease model rat was prepared in the same way as in Example 1. Compound [^123I] 2 was administered thereto (approximately 100 MBq/rat) in one week after the operation. Static imaging for approximately 8 minutes was started at 150 minutes after the administration using a SPECT apparatus for animals (FX3000, manufactured by TriFoil Imaging). […]

normal rat = experiment: SPECT imaging experiment using normal rat (Example 5); format: in vivo; settings: approximately 100 MBq/rat, imaging started 150 minutes after administration, FIG. 9(a)-(c)
Procedure: Each ischemic heart disease model rat was prepared in the same way as in Example 1. Compound [^123I] 2 was administered thereto (approximately 100 MBq/rat) in one week after the operation. Static imaging for approximately 8 minutes was started at 150 minutes after the administration using a SPECT apparatus for animals (FX3000, manufactured by TriFoil Imaging). Data collection was carried out in an energy window of 143 to 175 keV, and the collected data was reconstituted by OSEM (Ordered Subset Expectation Maximization) to obtain images. Computed tomography imaging was carried out in order to identify the position of the heart. The same experiment as above was conducted using a normal rat.

[4] = tested on: ischemic heart disease model rat; experiment: Ex vivo autoradiography using ischemic heart disease model rat (Example 2); format: in vivo
Procedure: as §1
Each ischemic heart disease model rat was prepared in the same way as in Example 1. Compound [^18F] 1 was administered thereto (approximately 50 MBq/rat) between 1 and 3 weeks after the operation. 20 minutes after the administration, the rat was sacrificed under anesthesia, and the heart was taken out thereof. […]

[5] = tested on: heart tissue section of a myocarditis model rat; experiment: In vitro autoradiography using myocarditis model rat (Example 7); format: binding
[6] = tested on: heart tissue section of a hypertensive heart disease model rat; experiment: In vitro autoradiography using hypertensive heart disease model rat (Example 9); format: binding
Procedure: Each DIS/Eis (Dahl-Iwai S) rat (male, Japan SLC, Inc.) was fed with 8% NaCl diet (Oriental Yeast Co., Ltd.) from the age of 5 weeks, raised up to the age of 11 weeks, and then sacrificed under anesthesia, and the heart was taken out thereof. Sections of 5 μm in thickness were prepared. Immunostaining was carried out using the prepared sections to confirm the expression and distribution of CPY11B2. As an anti-CYP11B2 antibody, one prepared according to the method described in Ogishima T et al., Endocrinology, 1992, vol. 130, pp. 2971-7 was used. As a secondary antibody, HRP Labelled Polymer Anti-Rabbit (manufactured by Dako/Agilent Technologies, Inc.) was used. CYP11B2 expression sites were detected by applying DAB+(3,3′-diaminobenzidine tetrahydrochloride) substrate kit (manufactured by Dako/Agilent Technologies, Inc.) to the HRP bound to the secondary antibody. The same experiment as above was conducted using the heart harvested from a DIS/Eis rat raised with a NaCl-free diet (normal rat).
Each hypertensive heart disease model rat was prepared in the same way as in Example 8. The heart was harvested, and 5 μm-thick sections were prepared and preserved at −80° C. until they were used. […] 3 (radioactivity concentration: approximately 10 kBq/mL) was prepared, and the hydrophilized sections were immersed therein at room temperature for 30 minutes. […]

[7] = tested on: heart tissue section of an ischemic heart disease model rat; experiment: In vitro autoradiography using ischemic heart disease model rat (Example 10); format: binding; settings: ischemic heart disease model rat one week after operation, approximately 10 kBq/mL, FIG. 14
Procedure: as §1
as §2, with “in one” for “1 day (3 rats), 3 days (4 rats) or 1”, “week” for “week (4 rats)”, “3” for “2”

| Compound | accumulation in the presence of an excessive amount of non-labeled compound (binding specificity) [1] | agreement of accumulation with fibrosis region ([1]; Masson trichrome staining of the same section, FIG. 6) | ratio of ischemia reperfusion site signal intensity/non-ischemic site signal intensity [1] | accumulation in lesion region on in vitro autoradiogram [1] | accumulation compared between the two labeled compounds ([1]; signal intensity ratio, FIG. 7(b) versus 7(d)) | ratio of ischemia reperfusion site signal intensity/non-ischemic site signal intensity with elapsed time [2] | accumulation in the heart on SPECT image [3] | accumulation in the heart on SPECT image (normal rat) | staining findings at the position corresponding to the accumulation site ([4]; HE, Masson trichrome and CYP11B2 immunostaining of adjacent section, FIG. 3) | accumulation in the heart on ex vivo autoradiogram ([4]; approximately 50 MBq/rat, 1 to 3 weeks after operation, heart taken 20 minutes after administration, FIG. 2) | agreement of accumulation with fibrosis region ([5]; Masson trichrome staining of adjacent section, FIG. 11) | accumulation in heart tissue section compared with normal rat ([5]; approximately 10 kBq/mL, FIG. 11(a),(b)) | agreement of accumulation with fibrosis region ([6]; Masson trichrome staining of adjacent section, FIG. 13) | accumulation in heart tissue section compared with normal rat ([6]; approximately 10 kBq/mL, FIG. 13(a),(b)) | accumulation in lesion region compared with normal rat [7] |
| --- | --- | --- | --- | --- | --- | --- | --- | --- | --- | --- | --- | --- | --- | --- | --- |
| FCCn1c(-c2cncc(Cn3ccnc3)c2)nc2ccc([123I])cc21 [Compound [^123I] 2, 1-(2-fluoroethyl)-2-[5-{(imidazol-1-yl)methyl}pyridin-3-yl]-6-[^123I]iodobenzimidazole] | inhibited by the addition of an excessive amount of a non-labeled compound, suggesting that the binding is specific | in good agreement with a fibrosis region | increased accumulation | accumulation of Compound [^123I] 2 in a lesion region was confirmed | Higher accumulation of Compound [^123I] 2 than that of Compound [^18F] 1 | increased with elapsed time after the operation | confirmed in the heart of the ischemic heart disease model rat | not observed in the heart of the normal rat | – | – | – | – | – | – | – |
| Fc1cc2nc(-c3cncc(Cn4ccnc4)c3)n(CC[18F])c2cc1Cl [Compound [^18F] 1, 6-chloro-5-fluoro-1-(2-[^18F]fluoroethyl)-2-[5-(imidazol-1-ylmethyl)pyridin-3-yl]benzimidazole] | inhibited by the addition of an excessive amount of a non-labeled compound, suggesting that the binding is specific | – | increased accumulation | accumulation of Compound [^18F] 1 in a lesion region was confirmed | – | – | – | – | inflammatory reaction, fibrosis, and CYP11B2 expression were also confirmed at a position corresponding to the accumulation site | local accumulation of Compound [^18F] 1 was confirmed | – | – | – | – | – |
| Cn1c(-c2cncc(Cn3ccnc3)c2)nc2ccc([123I])cc21 [Compound [^123I] 3, 2-[5-{(1H-imidazol-1-yl)methyl}pyridin-3-yl]-6-[^123I]iodo-1-methyl-1H-benz[d]imidazole] | – | – | – | – | – | – | – | – | – | – | in good agreement with a fibrosis region | increased accumulation | in good agreement with a fibrosis region | increased accumulation | increased accumulation |
